This passage reports IC50 results from US10800774B2, “Heterocyclic inhibitors of ATR kinase” (Board of Regents, The University of Texas System, priority 2017, dated 2020).

pIC50: −log10 of the molar value.

For experiment [1], the system named is ATR-driven phosphorylation of Chk1 kinase at Serine 345 in HT-29 cells. The experiment can be described thus: pCHK1 cellular assay (CHK1 p-Ser345 AlphaScreen SureFire). As to conditions: Homo sapiens, HT-29, read-out: pCHK1 Cell IC50. In general terms: Bead proximity is the source of the signal in Alpha formats.
Experiment [2] has as its target ATR/ATRIP complex (Homo sapiens (Human), UniProt Q13535). The experiment can be described thus: ATR/ATRIP enzymatic assay (Caliper-based). Format: biochemical. As to conditions: FAM-labeled RAD17 peptide, ATP; read-out: ATR/ATRIP Enzyme IC50. Here is the method: Human full-length FLAG-TEV-ATR and His6-ATRIP were co-expressed in HEK293 cells. […] The sample was loaded into a column, and then washed with buffer A three times. Protein was subsequently eluted with 2 ml of buffer B (buffer A+200 μg/ml 3×FLAG peptide).
The ability of new chemical matter to inhibit the ATR catalytic activity in this ATR/ATRIP complex was assessed using a Caliper-based assay. A 2× enzyme solution (i.e., 4 nM enzyme) was prepared using 1× Kinase Reaction Buffer (25 mM HEPES pH 8, 0.0055% Brij-35, 10 mM MnCl2, and 1 mM DTT). […] 10 μL of the 2× enzyme solution was transferred to an assay plate containing 60 nL of test compound (from a 3× serial dilution) in 100% DMSO. Following a 30 minute incubation at 28° C., 10 μL of the 2× peptide solution was then transferred to the same assay plate. The reaction was allowed to incubate at 28° C. for 6 hours. After adding […] of stop buffer (100 mM HEPES pH 7.5, 0.015% Brij-35, 0.2% Coating-3 Reagent (PerkinElmer, catalog # PN760050), and 50 mM EDTA), data were collected on a Caliper instrument. Conversion values were converted to inhibition values via the following equation: % inhibition=(max−conversion)/(max−min)*100, whereby “max” corresponds to the DMSO control and “min” corresponds to the low control. IC50 values were calculated using the following equation in XLFit: Y=Bottom+(Top−Bottom)/1+(IC50/X)^HillSlope).

Sequence of ATR/ATRIP complex (Q13535 whole entry): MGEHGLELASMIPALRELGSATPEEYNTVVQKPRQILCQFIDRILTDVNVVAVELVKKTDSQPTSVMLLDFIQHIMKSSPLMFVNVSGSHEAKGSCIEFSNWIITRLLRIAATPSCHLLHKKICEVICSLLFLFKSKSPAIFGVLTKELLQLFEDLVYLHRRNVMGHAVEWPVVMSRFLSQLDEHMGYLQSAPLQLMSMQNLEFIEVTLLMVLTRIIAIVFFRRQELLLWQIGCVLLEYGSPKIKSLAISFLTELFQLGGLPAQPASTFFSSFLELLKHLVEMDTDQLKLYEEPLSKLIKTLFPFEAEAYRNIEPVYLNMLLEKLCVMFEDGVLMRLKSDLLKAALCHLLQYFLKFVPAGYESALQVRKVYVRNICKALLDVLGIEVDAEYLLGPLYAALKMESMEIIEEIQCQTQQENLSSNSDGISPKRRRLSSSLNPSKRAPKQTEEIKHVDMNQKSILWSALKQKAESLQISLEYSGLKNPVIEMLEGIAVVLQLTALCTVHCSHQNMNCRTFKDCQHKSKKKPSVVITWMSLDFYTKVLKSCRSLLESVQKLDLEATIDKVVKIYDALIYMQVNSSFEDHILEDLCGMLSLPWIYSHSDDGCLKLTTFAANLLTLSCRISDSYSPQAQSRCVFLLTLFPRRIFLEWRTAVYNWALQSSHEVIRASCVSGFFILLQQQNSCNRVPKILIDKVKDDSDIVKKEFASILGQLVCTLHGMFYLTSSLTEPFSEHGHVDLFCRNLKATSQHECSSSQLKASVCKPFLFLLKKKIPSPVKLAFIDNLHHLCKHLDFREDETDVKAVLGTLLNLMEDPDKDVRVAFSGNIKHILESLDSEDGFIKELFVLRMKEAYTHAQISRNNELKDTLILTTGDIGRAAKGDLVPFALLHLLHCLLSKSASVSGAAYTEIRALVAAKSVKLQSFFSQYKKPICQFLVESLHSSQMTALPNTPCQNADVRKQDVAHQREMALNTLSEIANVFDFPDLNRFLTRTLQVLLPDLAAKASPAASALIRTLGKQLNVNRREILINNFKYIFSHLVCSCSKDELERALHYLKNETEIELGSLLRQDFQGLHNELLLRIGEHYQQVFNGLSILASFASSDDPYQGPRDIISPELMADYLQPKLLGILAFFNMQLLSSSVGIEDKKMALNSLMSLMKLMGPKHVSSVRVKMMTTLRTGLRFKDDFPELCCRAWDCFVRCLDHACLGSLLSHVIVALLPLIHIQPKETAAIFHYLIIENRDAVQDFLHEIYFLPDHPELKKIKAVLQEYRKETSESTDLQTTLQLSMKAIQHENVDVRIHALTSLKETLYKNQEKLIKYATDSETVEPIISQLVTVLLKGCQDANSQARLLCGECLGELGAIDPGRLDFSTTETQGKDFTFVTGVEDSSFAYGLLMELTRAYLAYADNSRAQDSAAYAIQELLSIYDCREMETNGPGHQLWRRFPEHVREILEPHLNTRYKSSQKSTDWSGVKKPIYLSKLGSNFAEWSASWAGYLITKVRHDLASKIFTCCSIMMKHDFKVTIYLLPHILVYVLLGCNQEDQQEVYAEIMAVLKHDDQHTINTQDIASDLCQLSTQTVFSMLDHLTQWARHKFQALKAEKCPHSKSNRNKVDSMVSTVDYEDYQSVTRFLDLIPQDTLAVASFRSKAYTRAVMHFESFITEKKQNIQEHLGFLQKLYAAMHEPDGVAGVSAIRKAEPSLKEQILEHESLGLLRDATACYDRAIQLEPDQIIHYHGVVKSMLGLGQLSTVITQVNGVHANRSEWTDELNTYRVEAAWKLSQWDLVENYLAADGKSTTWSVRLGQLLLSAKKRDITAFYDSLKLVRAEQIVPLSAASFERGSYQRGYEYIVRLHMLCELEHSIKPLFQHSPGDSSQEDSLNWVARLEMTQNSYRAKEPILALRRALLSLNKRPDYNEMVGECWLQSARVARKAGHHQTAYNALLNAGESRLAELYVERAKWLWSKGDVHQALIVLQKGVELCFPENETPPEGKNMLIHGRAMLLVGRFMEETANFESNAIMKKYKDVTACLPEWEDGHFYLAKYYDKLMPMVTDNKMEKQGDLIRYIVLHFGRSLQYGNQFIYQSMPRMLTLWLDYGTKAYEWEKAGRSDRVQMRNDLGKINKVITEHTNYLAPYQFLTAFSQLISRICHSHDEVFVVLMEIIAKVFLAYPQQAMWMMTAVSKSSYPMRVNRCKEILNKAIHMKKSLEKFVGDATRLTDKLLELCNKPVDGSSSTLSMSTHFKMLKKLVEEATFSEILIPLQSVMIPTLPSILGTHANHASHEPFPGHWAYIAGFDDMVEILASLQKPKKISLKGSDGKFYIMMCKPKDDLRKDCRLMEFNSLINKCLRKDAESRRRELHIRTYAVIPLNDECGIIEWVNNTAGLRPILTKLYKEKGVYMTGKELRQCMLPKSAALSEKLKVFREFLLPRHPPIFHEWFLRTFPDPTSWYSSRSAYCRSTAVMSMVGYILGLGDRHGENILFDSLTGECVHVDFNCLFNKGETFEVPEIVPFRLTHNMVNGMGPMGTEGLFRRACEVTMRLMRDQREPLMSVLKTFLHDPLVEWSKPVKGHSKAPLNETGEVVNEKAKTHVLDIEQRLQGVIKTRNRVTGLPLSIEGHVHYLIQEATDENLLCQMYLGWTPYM
Sequence of ATR/ATRIP complex (Q8WXE1 whole entry partner): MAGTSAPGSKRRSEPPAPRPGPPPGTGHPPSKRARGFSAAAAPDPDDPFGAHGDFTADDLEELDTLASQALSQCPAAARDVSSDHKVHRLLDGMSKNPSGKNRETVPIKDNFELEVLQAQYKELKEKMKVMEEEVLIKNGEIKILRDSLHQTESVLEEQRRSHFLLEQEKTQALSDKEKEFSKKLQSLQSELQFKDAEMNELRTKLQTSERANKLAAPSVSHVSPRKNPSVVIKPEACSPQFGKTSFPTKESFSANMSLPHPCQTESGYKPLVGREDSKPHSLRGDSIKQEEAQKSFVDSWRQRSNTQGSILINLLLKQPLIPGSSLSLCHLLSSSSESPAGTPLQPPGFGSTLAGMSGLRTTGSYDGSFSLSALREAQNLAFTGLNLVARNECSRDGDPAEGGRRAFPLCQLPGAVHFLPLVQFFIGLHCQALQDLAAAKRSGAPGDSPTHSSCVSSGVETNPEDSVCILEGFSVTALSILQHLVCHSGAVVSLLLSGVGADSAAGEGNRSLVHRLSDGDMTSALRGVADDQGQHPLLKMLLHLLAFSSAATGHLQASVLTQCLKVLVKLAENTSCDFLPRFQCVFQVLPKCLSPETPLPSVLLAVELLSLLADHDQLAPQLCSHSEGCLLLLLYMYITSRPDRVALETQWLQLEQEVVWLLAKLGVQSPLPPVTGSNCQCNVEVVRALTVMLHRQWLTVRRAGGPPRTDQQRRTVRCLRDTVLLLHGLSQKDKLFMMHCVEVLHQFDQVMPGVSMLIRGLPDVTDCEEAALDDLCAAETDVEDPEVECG

With `CC(=O)N1CCC(c2cc(N3CCOC[C@H]3C)nc(-c3ccnc4[nH]ccc34)n2)C1` (stereo partly drawn) [Example 16, 1-(3-{6-[(3R)-3-Methyl-morpholin-4-yl]-2-{1H-pyrrolo[2,3-b]pyridin-4-yl}-pyrimidin-4-yl}pyrrolidin-1-yl) ethan-1-one], the results for the pIC50 in experiment [1] and in experiment [2] were 6.62 and 7.72, respectively.
As for `CC(C)OC(=O)N1CCC(c2cc(N3CCOC[C@H]3C)nc(-c3ccnc4[nH]ccc34)n2)CC1` [Example 27, Propan-2-yl 4-{6-[(3R)-3-methylmorpholin-4-yl]-2-{1H-pyrrolo[2,3-b]pyridin-4-yl}pyrimidin-4-yl}piperidine-1-carboxylate], the pIC50 in experiment [1] was 6.39; in experiment [2], 7.82.
For `C[C@@H]1COCCN1c1cc(C2CCN(C(=O)C3CC3)CC2)nc(-c2ccnc3[nH]ccc23)n1` [Example 21, (3R)-4-[6-(1-Cyclopropanecarbonylpiperidin-4-yl)-2-{1H-pyrrolo[2,3-b]pyridin-4-yl}pyrimidin-4-yl]-3-methylmorpholine], the pIC50 was 7.09 in experiment [1] and 7.66 in experiment [2].
As to `C[C@@H]1COCCN1c1cc(C2CCCN(C)C2=O)nc(-c2ccnc3[nH]ccc23)n1` (stereo partly drawn) [Example 19, 1-Methyl-3-{6-[(3R)-3-methylmorpholin-4-yl]-2-{1H-pyrrolo[2,3-b]pyridin-4-yl}pyrimidin-4-yl} piperidin-2-one], the pIC50 in experiment [1] is 6.04; in experiment [2], 7.33.
